Measurements reported in patent US20220241409A1, “WATER SOLUBLE ADJUVANT AND COMPOSITION CONTAINING SAME” (Sumitomo Dainippon Pharma Co., Ltd., priority 2019, published 2022).

Legend:
[1] = system: human peripheral blood mononuclear cell; test: Activation of immune cells, human PBMC cytokine/chemokine production (Test 3); format: cell-based; settings: 200 nmol/L, one day, PBMCs from two donors, compared with only DMSO
Experimental: Cryopreserved peripheral blood mononuclear cells (PBMCs) of adult (C.T.L) were reconstituted, suspended in a culture medium which comprises AIM V medium (Life Technologies) supplemented with 10% human serum (biowest) and 1% MEM Non-Essential Amino Acids Solution (100×) (Life Technologies), and seeded on a U-bottom 96 well plate at 4×10^5 cells/well. The compound of the present invention was added in the presence of 0.1% (v/v) DMSO to the wells at a final concentration of 200 nmol/L. The plate was incubated at 37° C. under an atmosphere of 5% CO2. One day after the incubation, the culture supernatant was collected. The concentration of cytokine and chemokine (GM-CSF, IFNα2, IFNγ, IL-12p40, IL-1p, IL-6, IP-10, and TNFα) which were included in each culture supernatant was measured with Milliplex Human Cytokine/Chemokine Magnetic Bead Panel kit (Millipore) and Luminex system (Luminex) in accordance with the manufacturer's protocol.
The results of the test wherein PBMCs derived from two different donors were used were shown in FIG. 1-A to FIG. 1-I. The white bar indicates the mean number of the concentration of cytokine and chemokine in the culture supernatant from three wells to which only DMSO was added, and the black bar indicates the mean number of the concentration of cytokine and chemokine in the culture supernatant from three wells to which the present compound was added. […]

[2] = system: HLA-A*02:01 transgenic mouse; test: In vivo adjuvant activity, CTL induction with vaccine a, IFNγ ELISPOT (Test 6); settings: for CTL counts responsive to Peptide SEQ ID No. 1 (IFNγ-producing cells) / CTL counts responsive to Peptide SEQ ID No. 5 (IFNγ-producing cells): compound added to vaccine a versus vaccine a, intradermal, Example 3 32.5 ng per body, Reference example 14 17.5 ng per body, one week later
Experimental: The in vivo adjuvant activity of the compound of Example 3 and the compound of Reference example 14 was evaluated in the following procedure. To a cocktail vaccine comprising Compound of formula 4 prepared in Reference example 9 and Peptide SEQ ID No. 3 prepared in Reference example 3 with a preliminarily-emulsified composition (hereinafter, referred to as “vaccine a”) was added the compound prepared in Example 3 or the compound prepared in Reference example 14 respectively to prepare each vaccine. The vaccine was administered to a HLA-A*02:01 transgenic mouse, and the adjuvant activity of each vaccine was evaluated by the method of testing antigen-specific cytotoxic T-lymphocyte (CTL) induction. The RMFPNAPYL (SEQ ID No. 1) in Compound of formula 4 and VLDFAPPGA (SEQ ID No. 5) in Peptide SEQ ID No. 3 correspond to antigen peptides derived from an HLA-A*02:01-restricted WT1 protein.
HLA-A*02:01 transgenic mouse (C57BL/6CrHLA-A2.1DR1) lacks mouse MHC, and instead expresses a chimeric HLA of a human MHC (HLA-A*02:01) and a mouse MHC (H-2D^b), and HLA-DRB1*01:01. The mouse can evaluate the pharmacological activity of immunotherapeutic agents including a peptide which induces CTLs in HLA-A*02:01-positive human (Eur J Immunol. 2004; 34: 3060-9). In addition, the mouse can also evaluate the induction of a helper peptide which can bind to a human HLA-DRB1*01:01 to induce a helper T-cell, and the enhancing effect for inducing CTLs.
The character for inducing CTLs specific to the antigen peptide (SEQ ID No. 1 or SEQ ID No. 5) by vaccine a was evaluated by measuring whether IFNγ can be produced upon stimulation of splenocytes from the mouse with the peptide. In addition, the character for exerting in vivo adjuvant activity by the compound in Example 3 or the compound in Reference example 14 was evaluated by comparing the number of CTLs induced by vaccine a and the number of CTLs induced by the vaccine prepared by adding the compound prepared in Example 3 or the compound in Reference example 14 to vaccine a, and checking presence or absence of the increase on the number.
0.312 g of sodium dihydrogen phosphate dihydrate was dissolved in 80 g of water for injection. 14.0 g of ethyl oleate, 14.0 g of octyldodecyl myristate, 2.0 g of sorbitan monooleate, 2.8 g of glyceryl monooleate, 0.4 g of polyoxyethylene hydrogenated castor oil 20, and 0.4 g of glycerin were mixed. 2.354 mL of the mixture (corresponding to 2.077 g) was put into a test tube, and 0.396 mL of the aqueous sodium dihydrogen phosphate (corresponding to 0.396 g) was gradually added into the test tube which was being stirred with a mixer (ULTRA-TURRAX T10, IKA, or Touch Mixer MT-51, Yamato Scientific) to emulsify the mixture in the test tube. The obtained emulsion was referred to as preliminary emulsified composition. The amount of the preparation was adjusted as appropriate.
Compound of formula 4 and Peptide SEQ ID No. 3 were dissolved in DMSO, and then diluted with water for injection to concentrations of Compound of formula 4 of 3 mg/ml and Peptide of SEQ ID No. 3 of 2.25 mg/ml. The diluted peptide solution was mixed and emulsified with an equal volume of the above preliminary emulsified composition to prepare vaccine a. Vaccine a was injected to mice intradermally at the tail base area in an amount for administering 300 μg of Compound of formula 4 per body and 225 μg of Peptide SEQ ID No. 3 per body. Or, in the step of preparing vaccine a, the compound prepared in Example 3 was added to the diluted peptide solution to prepare a vaccine, and the prepared vaccine was injected to mice intradermally at the tail base area in an amount for administering 300 μg of Compound of formula 4 per body, 225 μg of Peptide SEQ ID No. 3 per body, and 32.5 ng of the compound prepared in Example 3 per body. […]

[3] = Example 3 32.5 ng per body versus Reference example 14 17.5 ng per body, added to vaccine

| Structure (SMILES) | concentration of cytokine and chemokine (GM-CSF, IFNα2, IFNγ, IL-12p40, IL-1β, IL-6, IP-10, TNFα) in culture supernatant [1] | increase of the CTL counts (Peptide SEQ ID No. 1) compared with Reference example 14 [2, 3] | increase of the CTL counts (Peptide SEQ ID No. 5) compared with Reference example 14 [2, 3] | CTL counts responsive to Peptide SEQ ID No. 1 (IFNγ-producing cells) [2] | CTL counts responsive to Peptide SEQ ID No. 5 (IFNγ-producing cells) [2] |
| --- | --- | --- | --- | --- | --- |
| CCCCOc1nc(N)c2[nH]c(=O)n(Cc3ccc(CN(C)CCOCCOCCOCCOCCO)nc3)c2n1 [Example 2, 6-amino-2-butoxy-9-{[6-(16-hydroxy-2-methyl-5,8,11,14-tetraoxa-2-azahexadecan-1-yl)pyridin-3-yl]methyl}-7,9-dihydro-8H-purin-8-one-trifluoroacetate] | higher | – | – | – | – |
| CCCCOc1nc(N)c2[nH]c(=O)n(Cc3ccc(CN(C)CCOCCOCCOCCOCCO)cc3)c2n1 [Example 3, 6-amino-2-butoxy-9-{[4-(16-hydroxy-2-methyl-5,8,11,14-tetraoxa-2-azahexadecan-1-yl)phenyl]methyl}-7,9-dihydro-8H-purin-8-one] | higher | more | more | increased | increased |
| CCCCOc1nc(N)c2[nH]c(=O)n(Cc3ccc(CNC)cc3)c2n1 [Reference example 14, reference compound] | – | – | – | increased | increased |
